Test results reported in ChEMBL document CHEMBL5236565, “Design, synthesis, and biological evaluation of novel 2'-methyl-2'-fluoro-6-methyl-7-alkynyl-7-deazapurine nucleoside analogs as anti-Zika virus agents” (Eur J Med Chem, 2022).

These molecules were tested on A549 (assay: Cytotoxicity against human A549 cells assessed as cell growth inhibition measured after 24 hrs by MTT assay). Conditions: not given.
Type: functional

Structure (SMILES)	CC50 [µM]
Cc1ncnc2c1c(C#Cc1ccccc1F)cn2[C@@H]1O[C@H](CO)[C@@H](O)[C@@]1(C)F	> 50
Cc1ccccc1C#Cc1cn([C@@H]2O[C@H](CO)[C@@H](O)[C@@]2(C)F)c2ncnc(C)c12	> 50
Cc1ncnc2c1c(C#Cc1ccccc1)cn2[C@@H]1O[C@H](CO)[C@@H](O)[C@@]1(C)F	> 50
Cc1ncnc2c1c(C#Cc1ccccc1Br)cn2[C@@H]1O[C@H](CO)[C@@H](O)[C@@]1(C)F	> 50
Cc1ncnc2c1c(C#Cc1ccc(Br)cc1)cn2[C@@H]1O[C@H](CO)[C@@H](O)[C@@]1(C)F	> 50

The molecules below were run on Zika virus (assay: Antiviral activity against ZIKV infected in human A549 cells at 50 uM by microtiter assay relative to control). Conditions: not given.
Type: functional

Structure (SMILES)	Activity [%]
Cc1ncnc2c1c(C#Cc1ccccc1F)cn2[C@@H]1O[C@H](CO)[C@@H](O)[C@@]1(C)F	>90
Cc1ccccc1C#Cc1cn([C@@H]2O[C@H](CO)[C@@H](O)[C@@]2(C)F)c2ncnc(C)c12	>90
Cc1ncnc2c1c(C#Cc1ccccc1Br)cn2[C@@H]1O[C@H](CO)[C@@H](O)[C@@]1(C)F	>90
Cc1ncnc2c1c(C#Cc1ccc(Br)cc1)cn2[C@@H]1O[C@H](CO)[C@@H](O)[C@@]1(C)F	>90

The molecules below were run on Zika virus (assay: Antiviral activity against ZIKV ZG-01 infected in human A549 cells assessed as reduction in viral induced cytopathic effect by measuring reduction in PFU measured after 4 days by neutral red staining based plaque assay). Conditions: ZG-01, A549, 96 h.
Type: functional, organism-based

Structure (SMILES)	EC50 [µM]
Cc1ncnc2c1c(C#Cc1ccccc1F)cn2[C@@H]1O[C@H](CO)[C@@H](O)[C@@]1(C)F	4.9
Cc1ccccc1C#Cc1cn([C@@H]2O[C@H](CO)[C@@H](O)[C@@]2(C)F)c2ncnc(C)c12	8.5
Cc1ncnc2c1c(C#Cc1ccccc1)cn2[C@@H]1O[C@H](CO)[C@@H](O)[C@@]1(C)F	13.8
Cc1ncnc2c1c(C#Cc1ccccc1Br)cn2[C@@H]1O[C@H](CO)[C@@H](O)[C@@]1(C)F	9.6
Cc1ncnc2c1c(C#Cc1ccc(Br)cc1)cn2[C@@H]1O[C@H](CO)[C@@H](O)[C@@]1(C)F	4.4

Same assay, conditions: ZG-01, A549, 96 h, time 4 day

Structure (SMILES)	EC90 [µM]
Cc1ncnc2c1c(C#Cc1ccccc1F)cn2[C@@H]1O[C@H](CO)[C@@H](O)[C@@]1(C)F	19.7
Cc1ccccc1C#Cc1cn([C@@H]2O[C@H](CO)[C@@H](O)[C@@]2(C)F)c2ncnc(C)c12	25.7
Cc1ncnc2c1c(C#Cc1ccccc1)cn2[C@@H]1O[C@H](CO)[C@@H](O)[C@@]1(C)F	33.6
Cc1ncnc2c1c(C#Cc1ccccc1Br)cn2[C@@H]1O[C@H](CO)[C@@H](O)[C@@]1(C)F	19.7
Cc1ncnc2c1c(C#Cc1ccc(Br)cc1)cn2[C@@H]1O[C@H](CO)[C@@H](O)[C@@]1(C)F	14.7
